Experimental data from patent publication US7696408B2, “Method to enhance Agrobacterium-mediated transformation of plants” (Regents of the University of Minnesota, priority 1999, dated 2010).
Where “and” joins values, the source holds several entries; their conditions need not be identical. Equal values may be shown once. Entries after “also recorded” stand apart in the source; their conditions may differ.

Test system: soybean cot-node explants
Test: GUS+ sectors, shoots and shoot primordia after 28 days (4 weeks) on shoot induction medium with PPT (stable transformation)
Format: cell-based, Glycine max
Conditions: for % of explants with GUS+ shoots: Bert
Protocol: After 5 days, the explants were washed in a liquid shoot induction media (B5 salts, MSIII iron stock, 3% sucrose, 3 mM MES, and filter sterilized B5 vitamins, 1.67 mg/l BAP, 100 mg/l cefotaxime, and 500 mg/l ticarcillin; pH 5.6) to remove excess Agrobacterium. Seven to ten explants from each cysteine level were washed in liquid shoot induction medium and placed in GUS histochemical stain (Jefferson et al., 1987). These explants were scored for GUS transient expression. Five to ten explants from each group were imbedded into a single 25×100 mm petri plate with solid shoot induction media (0.8% agar and agent, e.g., 400 mg/l cysteine) containing PPT concentrations of 1.33 mg/l, 3.33 mg/l, or 5.0 mg/l for selection. The plates were then incubated in a growth chamber with a fluctuating temperature between 18° C.-30° C. under a 18 hours light/6 hours dark cycle at 90-150 μE/m^2s. The explants were removed from the chamber after 14 days and transferred to fresh shoot induction media containing herbicide selection. During the transfer, the hypocotyl was carefully removed from the developing shoot mass and imbedded into the media with the differentiating tissue flush with the media surface. The plates were placed back into the growth chamber for an additional 2 weeks. At the 4 week time point, explants without de novo shoot production were discarded. The cotyledons were then removed from the differentiating tissue by cutting at the base of the node and the callus trimmed before transferring into shoot elongation media containing MS salts (murashige and Skoog, 1962), MSIII iron stock, 3% sucrose, 3 mM MES, 0.8% agar, and filter sterilized B5 vitamins, 50 mg/l asparagine, 100 mg/l pyroglutamic acid, 1 mg/l zeatin riboside, 0.1 mg/l indole-acetic acid, 0.5 mg/l GA3, 100 mg/l cefotaxime, 500 mg/l ticarcillin, 1.3-5 mg/l PPT; pH 5.6). Also at this time, a percentage of the explants were sliced into about 10 sections and stained for both GUS positive sectors and GUS positive shoots. Every 2 weeks the explants were transferred into new shoot elongation media after removing dead plant tissue and the bottom of the explant cut to encourage shoot elongation of transformed shoots. For the 4 week data, the minimum number of transformation events was recorded. Those explants with a GUS positive sector in the differentiating tissue giving rise to shoots were recorded with the number of transformation events in bold and italicized (FIGS. 2-5). Shoot data was obtained by recording the number of fully formed shoots seen on an explant. […] To determine the effect of adding cysteine to the co-cultivation medium on stable transformation, co-cultured explants were cultured for 28 days on a shoot-inducing medium containing the herbicide, phosphinothricin (PPT). During the 28 day incubation, the explants usually form de novo callus and shoots in the cot-node region in a structure referred to as a callus/shoot pad (FIG. 9). The callus/shoot pads were sliced in approximately 5 mm sections, immersed into GUS histochemical stain, and scored for GUS^+ sectors throughout the callus/shoot pad. […] The formation of transgenic shoot primordia and sectors extending into developing shoot tissues were also scored on 28 day sections of explants co-cultivated on 0 and 400 mg/l cysteine (FIG. 10A). Only those GUS^+ shoot primordia with obvious trichomes, which are characteristic to leaf tissue, or GUS^+ sectors originating and extending into the tissue at the base of developing shoots (referred to hereafter as differentiating tissue) were scored (FIG. 1A2).

[1] = cysteine 400-1000 mg/l, eight independent experiments

N[C@@H](CS)C(=O)O [L-cysteine]
% of explants with GUS+ shoots (400 mg/l cysteine and 3.33 mg/l PPT): 16.6% and 16.7% | % of explants with GUS+ shoots (400 mg/l cysteine and 5 mg/l PPT): 33.3% | average number of GUS+ sectors per explant, each genotype tested (400 mg/l cysteine vs no cysteine, 28 day): significantly greater | frequency of explants with a GUS+ sector in differentiating tissue, relative to no cysteine (400 mg/l cysteine, 28 days): 3.5 fold | percent of explants with GUS+ shoot primordia, relative to no cysteine (400 mg/l cysteine, 28 days): 5 fold | average GUS+ foci/explant scored after 4 weeks of shoot initiation (400 mg/l cysteine, low selection pressure 1.6 to 3.33 mg/l PPT, control 3.3): 15.6 GUS+ foci/explant | percent of explants with GUS+ shoot primordia or differentiated sectors, difference from 0 mg/l cysteine (400 mg/l shoot primordia and differentiated sectors, 1000 mg/l shoot primordia, α=0.05): significantly differ | increase in GUS+ sectors over the control explants (1000 mg/l cysteine, 28 days): 3.6 fold | average number of GUS+ sectors per explant compared to no cysteine (300 to 1000 mg/l cysteine (FIG. 9 also 1500 mg/l), 28 days, P<0.05): significantly higher; also recorded: significantly differ | increase in GUS+ sectors over the no cysteine control (400 to 1000 mg/l cysteine, 28 days): > 3 fold | explants with GUS+ shoot primordia at other cysteine levels (all other levels of cysteine tested, except 50 mg/l, 28 days): at least one explant | GUS+ foci at the 28-day interval (amended to solid co-cultivation media): increase | increase in GUS+ shoot primordia after 28 days [1]: 5 fold | increase in stable T-DNA integration after 28 days [1]: 3.6 fold | number of GUS+ sectors on the callus/shoot pad, cysteine in shoot induction medium (cysteine added to shoot induction medium for 28 days): did not increase | increase in stable T-DNA transfer in newly developed shoot primordia (cysteine in co-cultivation media): ≥ 5 fold
